Measured values published in PubChem BioAssay AID330 (DTP/NCI, 2004).
Several values for one entry are separate records, joined by “and”; a condition that tells them apart may be missing. Equal values may be shown once. Toxic doses and inconclusive results are not listed.

System: P388 leukemia ip, CD2F1 mice, survival T/C
Test: NCI In Vivo Anticancer Drug Screen. Data for tumor model P388 Leukemia (intraperitoneal) in CD2F1 (CDF1) mice
Details: endpoint: median survival time, higher = longer survival
Summary of the method: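 Mice carrying the transplanted tumor received test compound or vehicle. Survival was recorded in each group, and the value is the treated-group measurement divided by that of the vehicle-treated control group.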

[1] = dose: 50.0 mg/kg/injection, schedule: Q01DX005 (ip), vehicle: Klucel (hydroxypropylcellulose) (HPC)
[2] = dose: 100.0 mg/kg/injection, schedule: Q01DX005 (ip), vehicle: Klucel (hydroxypropylcellulose) (HPC)
[3] = dose: 200.0 mg/kg/injection, schedule: Q01DX005 (ip), vehicle: Klucel (hydroxypropylcellulose) (HPC)
[4] = dose: 1.25 mg/kg/injection, schedule: Q01DX009 (ip), vehicle: water
[5] = dose: 2.5 mg/kg/injection, schedule: Q01DX009 (ip), vehicle: water
[6] = dose: 5.0 mg/kg/injection, schedule: Q01DX009 (ip), vehicle: water
[7] = dose: 10.0 mg/kg/injection, schedule: Q01DX009 (ip), vehicle: water
[8] = dose: 20.0 mg/kg/injection, schedule: Q01DX009 (ip), vehicle: water

CC1(c2ccccn2)C(=O)c2ccccc2C1=O
T/C [1]: 98 % of control | T/C [2]: 100 % of control | T/C [3]: 99 % of control

CCN(CC)CCCC(C)NC(=O)c1ccc2c(c1O)C(=O)c1ccccc1C2=O (centres undefined)
T/C [4]: 100 % of control and 102 % of control | T/C [5]: 101 % of control and 105 % of control | T/C [6]: 106 % of control and 108 % of control | T/C [7]: 99 % of control and 101 % of control and 94 % of control | T/C [8]: 99 % of control and 101 % of control

CC[n+]1c(-c2ccccc2)c2cc(NCCCN)ccc2c2ccc(N)cc21
T/C [4]: 97 % of control | T/C [5]: 116 % of control | T/C [6]: 103 % of control | T/C [7]: 115 % of control | T/C [8]: 116 % of control

COc1ccc(/C=N/N2CN(C(CC(N)=O)C(=O)O)P(Nc3ncccn3)N=C2N)cc1OC (centres undefined)
T/C (dose: 60.0 mg/kg/injection, schedule: Q01DX005 (ip), vehicle: saline with Tween-80): 104 % of control | T/C (dose: 120.0 mg/kg/injection, schedule: Q01DX005 (ip), vehicle: saline with Tween-80): 102 % of control | T/C (dose: 240.0 mg/kg/injection, schedule: Q01DX005 (ip), vehicle: saline with Tween-80): 95 % of control

C[C@]12CC[C@H](O)CC1CC[C@@H]1C2CC[C@]2(C)NC(=O)CCC12 (some centres undefined)
T/C (dose: 100.0 mg/kg/injection, schedule: Q01DX001 (ip), vehicle: saline with Tween-80): 108 % of control | T/C (dose: 200.0 mg/kg/injection, schedule: Q01DX001 (ip), vehicle: saline with Tween-80): 108 % of control | T/C (dose: 400.0 mg/kg/injection, schedule: Q01DX001 (ip), vehicle: saline with Tween-80): 120 % of control

C/C(=N\Nc1nc2ccccc2s1)c1ccccn1
T/C (dose: 12.5 mg/kg/injection, schedule: Q01DX005 (ip), vehicle: saline with Tween-80): 98 % of control | T/C (dose: 25.0 mg/kg/injection, schedule: Q01DX005 (ip), vehicle: saline with Tween-80): 93 % of control | T/C (dose: 50.0 mg/kg/injection, schedule: Q01DX005 (ip), vehicle: saline with Tween-80): 101 % of control and 91 % of control | T/C (dose: 100.0 mg/kg/injection, schedule: Q01DX005 (ip), vehicle: saline with Tween-80): 104 % of control

COc1cc2cc(c1Cl)N(C)C(=O)CC(OC(=O)C(C)N(C)C(=O)C(C)C)C1(C)OC1C(C)C1CC(O)(NC(=O)O1)C(OC)/C=C/C=C(C)C2O (centres undefined)
T/C (dose: 0.02 mg/kg/injection, schedule: Q01DX009 (ip), vehicle: steriod suspending solution): 168 % of control | T/C (dose: 0.05 mg/kg/injection, schedule: Q01DX009 (ip), vehicle: steriod suspending solution): 150 % of control | T/C (dose: 0.1 mg/kg/injection, schedule: Q01DX009 (ip), vehicle: steriod suspending solution): 186 % of control | T/C (dose: 0.2 mg/kg/injection, schedule: Q01DX009 (ip), vehicle: steriod suspending solution): 213 % of control | T/C (dose: 32.0 micrograms/kg/injection, schedule: Q01DX009 (ip), vehicle: distilled water + alcohol): 159 % of control

Cc1nc2c(c(-c3ccc(Cl)cc3)n1)Cc1c(ccc3ccccc13)O2
T/C (dose: 50.0 mg/kg/injection, schedule: Q01DX009 (ip), vehicle: saline): 107 % of control and 95 % of control | T/C (dose: 100.0 mg/kg/injection, schedule: Q01DX009 (ip), vehicle: saline): 100 % of control | T/C (dose: 200.0 mg/kg/injection, schedule: Q01DX009 (ip), vehicle: saline): 100 % of control and 94 % of control

C=C1CC(NCC(=O)OCC)=C(O)C1=O
T/C (dose: 25.0 mg/kg/injection, schedule: Q01DX005 (ip), vehicle: Klucel (hydroxypropylcellulose) (HPC)): 93 % of control | T/C [1]: 90 % of control | T/C [2]: 94 % of control

N#C/C(=C\c1c(Cl)cccc1Cl)c1nc2ccccc2[nH]1
T/C (dose: 50.0 mg/kg/injection, schedule: Q01DX009 (ip), vehicle: Klucel (hydroxypropylcellulose) (HPC)): 115 % of control | T/C (dose: 100.0 mg/kg/injection, schedule: Q01DX009 (ip), vehicle: Klucel (hydroxypropylcellulose) (HPC)): 103 % of control | T/C (dose: 200.0 mg/kg/injection, schedule: Q01DX009 (ip), vehicle: Klucel (hydroxypropylcellulose) (HPC)): 112 % of control

NC(N)=NN=C(C1CC1)C1CC1
T/C [1]: 100 % of control | T/C [2]: 98 % of control | T/C [3]: 103 % of control

O=C1c2ccccc2C(=O)c2c(NCCNCCO)ccc(NCCO)c21
T/C (dose: 5.0 mg/kg/injection, schedule: Q04DX002 (ip), vehicle: saline): 115 % of control

Cc1cccc(Nc2nc(C)nc3[nH]c(Cc4ccccc4)c(C)c23)c1
T/C [1]: 86 % of control | T/C [2]: 86 % of control | T/C [3]: 88 % of control
